Laboratory results reported in US20130004651A1, “SUSTAINED DRUG RELEASE FROM BODY IMPLANTS USING NANOPARTICLE-EMBEDDED POLYMERIC COATING MATERIALS” (priority 2011, published 2013).

Experiment: Sustained release study (fluorescence intensity vs. time)
Type: physicochemical
Description: Step 3: Sustained Release Study
FIGS. 6a and 6b show the sustained release of chloramphenicol (at 1 and 4 molar concentrations, respectively) from the liposomes described above as a function of fluorescence intensity vs. time at a release rate of about 0.65 mg/day.

release rate (sustained release from liposomes, 1 and 4 molar concentrations (FIGS. 6a, 6b)) | release rate (sustained release from reverse micelles (FIG. 6c)) | Molecule
about 0.65 mg/day | – | O=C(N[C@H](CO)[C@H](O)c1ccc([N+](=O)[O-])cc1)C(Cl)Cl [chloramphenicol]
– | about 113 mg/day | vitamin E
